Patent publication US20230295110A1, “PHD INHIBITOR COMPOUNDS, COMPOSITIONS, AND METHODS OF USE” (Akebia Therapeutics, Inc., priority 2020, published 2023)
Like-named read-outs stand apart in the source and are kept apart here.

Legend:
full-length human PHD2 = full-length human PHD2 (Homo sapiens (Human), UniProt Q9GZT9); experiment: TR-FRET assay for PHD enzymes, PHD2
Description: Time-resolved fluorescence resonance energy transfer (TR-FRET) assay was utilized to determine the enzymatic half maximal inhibitory concentration (IC50) value of PHD inhibitors against the full-length human prolyl-4-hydroxylase domain (PHD) enzymes, PHD1, PHD2, and PHD3. The TR-FRET assay was developed based on the specific binding of hydroxylated HIF-1α peptide with the complex formed by VHL, EloB and EloC (VBC), to generate a fluorescent signal. Terbium (Tb)-Donor (monoclonal antibody anti-6His-Tb-cryptate Gold) and D2-acceptor (streptavidin [SA]-D2) of TR-FRET are linked to the VBC complex and to HIF-1α peptide, respectively. The VBC complex binds specifically to the HIF-1α peptide when it is hydroxylated, allowing energy transfer from TR-FRET donor to acceptor (FIG. 1). […] The plates were incubated for 30 minutes at room temperature without rotation. […] TR-FRET assays were performed in triplicate at each concentration of compound and the assays were repeated independently three times.

full-length human PHD1 = full-length human PHD1 (Homo sapiens (Human), UniProt Q96KS0); experiment: TR-FRET assay for PHD enzymes, PHD1; type: biochemical; settings: for IC50: TR-FRET, 15 nM PHD1, 1 μM 2-OG
Description: PHD1 was expressed in a baculovirus expression system as the full-length protein (NCBI accession number NP_542770.2) with an N-terminal FLAG tag (molecular weight 44.9 kDa).

[1] = read-out: PHD2 IC50, TR-FRET, 5 nM PHD2, 1 μM 2-OG

Chain of full-length human PHD1 (Q96KS0 whole entry): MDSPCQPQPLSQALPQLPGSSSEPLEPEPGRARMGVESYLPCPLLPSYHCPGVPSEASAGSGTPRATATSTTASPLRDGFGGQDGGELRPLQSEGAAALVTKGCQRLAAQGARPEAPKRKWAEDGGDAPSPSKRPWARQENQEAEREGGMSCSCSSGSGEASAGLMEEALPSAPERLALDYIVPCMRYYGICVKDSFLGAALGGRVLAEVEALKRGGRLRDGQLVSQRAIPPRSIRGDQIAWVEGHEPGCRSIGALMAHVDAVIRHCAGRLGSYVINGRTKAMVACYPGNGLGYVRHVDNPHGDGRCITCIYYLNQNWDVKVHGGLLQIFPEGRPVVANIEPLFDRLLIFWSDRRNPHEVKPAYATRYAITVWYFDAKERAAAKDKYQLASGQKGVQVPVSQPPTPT
Chain of full-length human PHD2 (Q9GZT9 whole entry): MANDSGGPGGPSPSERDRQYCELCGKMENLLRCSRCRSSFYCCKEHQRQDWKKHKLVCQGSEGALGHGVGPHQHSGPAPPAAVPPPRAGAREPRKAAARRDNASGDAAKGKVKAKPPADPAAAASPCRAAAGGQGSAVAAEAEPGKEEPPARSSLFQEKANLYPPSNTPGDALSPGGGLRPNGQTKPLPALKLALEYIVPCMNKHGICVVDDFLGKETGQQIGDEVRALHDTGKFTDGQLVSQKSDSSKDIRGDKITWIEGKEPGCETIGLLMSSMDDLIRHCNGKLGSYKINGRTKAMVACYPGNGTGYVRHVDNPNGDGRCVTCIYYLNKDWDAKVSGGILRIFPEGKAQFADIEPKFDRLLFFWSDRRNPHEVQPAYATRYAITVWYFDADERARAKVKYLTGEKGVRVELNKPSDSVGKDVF

Structure (SMILES)	IC50 (full-length human PHD2; [1])	IC50 (full-length human PHD1)	Km (full-length human PHD1; read-out: Km of 2-OG for PHD1)	IC50 (full-length human PHD2)
Cc1c(-c2cccc(F)c2)cnc(C(=O)NCC(=O)O)c1O [Compound 1, (5-(3-Fluorophenyl)-3-hydroxy-4-methylpicolinoyl)glycine]	< 100 nM	< 100 nM	–	–
O=C(O)CCC(=O)C(=O)O [Compound 2-OG, 2-oxoglutarate, reference compound]	–	–	0.0127 µM	–
Cc1c(-c2cnn(-c3ccccc3)c2)cnc(C(=O)NCC(=O)O)c1O [Compound 4, (3-Hydroxy-4-methyl-5-(1-phenyl-1H-pyrazol-4-yl)picolinoyl)glycine]	< 100 nM	< 100 nM	–	–
Cc1c(-c2cnn(C3CCN(C(=O)OC(C)(C)C)CC3)c2)cnc(C(=O)NCC(=O)O)c1O [Compound 6, (5-(1-(1-(Tert-butoxycarbonyl)piperidin-4-yl)-1H-pyrazol-4-yl)-3-hydroxy-4-methylpicolinoyl)glycine]	< 100 nM	< 100 nM	–	–
Cc1c(-c2cccc(Oc3ccccc3)c2)cnc(C(=O)NCC(=O)O)c1O [Compound 8, (3-Hydroxy-4-methyl-5-(3-phenoxyphenyl)picolinoyl)glycine]	< 100 nM	< 100 nM	–	–
Cc1c(-c2ccncc2)cnc(C(=O)NCC(=O)O)c1O [Compound 11, (5-Hydroxy-4-methyl-[3,4′-bipyridine]-6-carbonyl)glycine]	< 100 nM	< 100 nM	–	–
Cc1c(-c2ccccn2)cnc(C(=O)NCC(=O)O)c1O [Compound 12, (5′-Hydroxy-4′-methyl-[2,3′-bipyridine]-6′-carbonyl)glycine]	< 100 nM	< 100 nM	–	–
Cc1c(-c2cccc(Cl)c2)cnc(C(=O)NC(C)(C)C(=O)O)c1O [Compound 13, 2-(5-(3-Chlorophenyl)-3-hydroxy-4-methylpicolinamido)-2-methylpropanoic Acid]	–	> 10000 nM	–	> 10000 nM
Cc1c(-c2cccc(Cl)c2)cnc(C(=O)NC2(C(=O)O)CC2)c1O [Compound 14, 1-(5-(3-Chlorophenyl)-3-hydroxy-4-methylpicolinamido)cyclopropane-1-carboxylic acid]	–	1000 to 10000 nM	–	1000 to 10000 nM
Cc1c(-c2cccc(Cl)c2)cnc(C(=O)NC2(C(=O)O)CCC2)c1O [Compound 15, 1-(5-(3-Chlorophenyl)-3-hydroxy-4-methylpicolinamido)cyclobutane-1-carboxylic acid]	–	> 10000 nM	–	> 10000 nM
Cc1c(-c2cccc(Cl)c2)cnc(C(=O)NC2(C(=O)O)COC2)c1O [Compound 16, 3-(5-(3-Chlorophenyl)-3-hydroxy-4-methylpicolinamido)oxetane-3-carboxylic Acid]	–	1000 to 10000 nM	–	> 10000 nM
Cc1c(-c2ccc3c(c2)CCC(C)N3)cnc(C(=O)NCC(=O)O)c1O (stereo not drawn) [Compound 17, (3-Hydroxy-4-methyl-5-(2-methyl-1,2,3,4-tetrahydroquinolin-6-yl)picolinoyl)glycine]	< 100 nM	< 100 nM	–	–
Cc1cc(CCOCc2ccccc2)c(O)c(C(=O)NCC(=O)O)n1 [Compound 23, (4-(2-(Benzyloxy)ethyl)-3-hydroxy-6-methylpicolinoyl)glycine]	–	100 to 1000 nM	–	100 to 1000 nM
Cc1cc(Cc2ccc(F)cc2)c(O)c(C(=O)NCC(=O)O)n1 [Compound 24, (4-(4-Fluorobenzyl)-3-hydroxy-6-methylpicolinoyl)glycine]	–	100 to 1000 nM	–	100 to 1000 nM
Cc1ncccc1-c1cnc(C(=O)NCC(=O)O)c(O)c1C [Compound 29]	–	100 to 1000 nM	–	100 to 1000 nM
Cc1c(-c2ccc3ncccc3c2)cnc(C(=O)NCC(=O)O)c1O [Compound 34, (3-hydroxy-4-methyl-5-(quinolin-6-yl)picolinoyl)glycine]	< 100 nM	< 100 nM	–	–
Cc1c(Oc2ccccc2)cnc(C(=O)NCC(=O)O)c1O [Compound 35, (3-hydroxy-4-methyl-5-phenoxypicolinoyl)glycine]	100 to 1000 nM	100 to 1000 nM	–	–
Cc1c(C(=O)c2ccccc2)cnc(C(=O)NCC(=O)O)c1O [Compound 40, (5-benzoyl-3-hydroxy-4-methylpicolinoyl)glycine]	–	100 to 1000 nM	–	100 to 1000 nM
Cc1c(-c2nnn(-c3cc(Cl)cc(Cl)c3)n2)cnc(C(=O)NCC(=O)O)c1O [Compound 45, (5-(2-(3,5-dichlorophenyl)-2H-tetrazol-5-yl)-3-hydroxy-4-methylpicolinoyl)glycine]	< 100 nM	< 100 nM	–	–

Structure (SMILES)	IC50 (full-length human PHD2; [1])	IC50 (full-length human PHD1)	Km (full-length human PHD1; read-out: Km of 2-OG for PHD1)	IC50 (full-length human PHD2)
CCc1c(-c2cccc(Cl)c2)cnc(C(=O)NCC(=O)O)c1O [Compound 46, (5-(3-chlorophenyl)-4-ethyl-3-hydroxypicolinoyl)glycine]	< 100 nM	< 100 nM	–	–
Cc1c(-c2cnn(-c3ccccc3)c2F)cnc(C(=O)NCC(=O)O)c1O [Compound 49, (5-(5-fluoro-1-phenyl-1H-pyrazol-4-yl)-3-hydroxy-4-methylpicolinoyl)glycine]	< 100 nM	< 100 nM	–	–
Cc1c(-c2cnn(-c3ccccc3)c2C)cnc(C(=O)NCC(=O)O)c1O [Compound 50, (3-hydroxy-4-methyl-5-(5-methyl-1-phenyl-1H-pyrazol-4-yl)picolinoyl)glycine]	–	100 to 1000 nM	–	100 to 1000 nM
Cc1c(-c2ccn(-c3ccccc3)c2)cnc(C(=O)NCC(=O)O)c1O [Compound 51]	–	< 100 nM	–	100 to 1000 nM
Cc1c(-c2nnn(C3CC3)n2)cnc(C(=O)NCC(=O)O)c1O [Compound 52]	< 100 nM	< 100 nM	–	–
Cc1c(C#CCOc2ccccc2)cnc(C(=O)NCC(=O)O)c1O [Compound 53]	< 100 nM	< 100 nM	–	–
Cc1c(S(=O)(=O)c2ccccc2)cnc(C(=O)NCC(=O)O)c1O [Compound 54]	–	100 to 1000 nM	–	100 to 1000 nM
Cc1c(N2CCN(c3ccccc3)CC2)cnc(C(=O)NCC(=O)O)c1O [Compound 55]	–	< 100 nM	–	100 to 1000 nM
Cc1c(N2CCC(c3ccccc3)CC2)cnc(C(=O)NCC(=O)O)c1O [Compound 56]	< 100 nM	< 100 nM	–	–
Cc1c(Oc2ccccc2)cnc(C(=O)NCC(=O)O)c1O [Compound 57, 2-(3-hydroxy-4-methyl-5-phenoxypicolinamido)acetic acid]	–	1000 to 10000 nM	–	100 to 1000 nM
Cc1c(Cc2ccccc2)cnc(C(=O)NCC(=O)O)c1O [Compound 58]	–	1000 to 10000 nM	–	100 to 1000 nM
Cc1c(Sc2ccccc2)cnc(C(=O)NCC(=O)O)c1O [Compound 59]	–	1000 to 10000 nM	–	100 to 1000 nM
Cc1c(-c2cnn(-c3ccc(Cl)cc3Cl)c2)cnc(C(=O)NCC(=O)O)c1O [Compound 60]	< 100 nM	< 100 nM	–	–
Cc1c(CCc2ccccc2)cnc(C(=O)NCC(=O)O)c1O [Compound 61]	–	100 to 1000 nM	–	100 to 1000 nM
Cc1c(C#Cc2ccccc2)cnc(C(=O)NCC(=O)O)c1O [Compound 62]	< 100 nM	< 100 nM	–	–
Cc1c(-c2nnn(-c3ccc(Cl)cc3)n2)cnc(C(=O)NCC(=O)O)c1O [Compound 63]	< 100 nM	< 100 nM	–	–
Cc1c(-c2nn[nH]n2)cnc(C(=O)NCC(=O)O)c1O [Compound 64]	–	100 to 1000 nM	–	100 to 1000 nM
Cc1c(-c2nnn(-c3ccccc3)n2)cnc(C(=O)NCC(=O)O)c1O [Compound 65]	< 100 nM	< 100 nM	–	–
Cc1c(-c2cnn(-c3cc(Cl)cc(Cl)c3)c2)cnc(C(=O)NCC(=O)O)c1O [Compound 66]	< 100 nM	< 100 nM	–	–
